Results: BigSolDB 2.1

Conditions: 298 K

solubility (mole fraction) (in n-hexane) | solubility (mole fraction) (in n-octanol) | solubility (mole fraction) (in water) | SMILES
0.000101 | 0.0335 | 8.49e-06 | O=S(=O)(Nc1ccccc1)c1ccccc1
2.63e-05 | 0.00151 | – | O=S(=O)(Nc1cccnc1Cl)c1ccccc1
1.37e-06 | 0.0421 | 1.68e-06 | O=S(=O)(Nc1ccc(Cl)cc1)c1ccccc1
– | 0.000422 | 2.05e-07 | Nc1ccc(S(=O)(=O)Nc2ccc(Cl)c(Cl)c2)cc1
– | 0.000552 | 1.53e-07 | Cc1ccc(NS(=O)(=O)c2ccc(N)cc2)cc1Cl
2.24e-06 | 0.000233 | 1.32e-06 | COc1ccc(NS(=O)(=O)c2ccc(N)cc2)cc1
– | – | 4.23e-06 | O=[N+]([O-])c1ccc(S(=O)(=O)Nc2nccs2)cc1
4.59e-06 | 0.00356 | 6.71e-07 | Cc1cc(N)ccc1S(=O)(=O)Nc1ccc(Cl)cc1
3.22e-06 | 0.000198 | 5.18e-07 | Cc1cc(N)ccc1S(=O)(=O)Nc1ccccc1[N+](=O)[O-]
– | 0.00486 | 0.00103 | CNS(=O)(=O)c1ccc(N)cc1
2.77e-06 | 0.00104 | 5.09e-07 | CCc1ccc(NS(=O)(=O)c2ccc(N)cc2)cc1
3.95e-06 | 0.00125 | 3.41e-07 | CCOc1ccc(NS(=O)(=O)c2ccc([N+](=O)[O-])cc2)cc1
6.58e-05 | 0.00282 | 1.17e-05 | O=S(=O)(Nc1ncccc1Cl)c1ccccc1
6.32e-06 | 0.00109 | 2.51e-07 | Nc1ccc(S(=O)(=O)Nc2cc(Cl)c(Cl)cc2Cl)cc1
– | 0.000308 | 3.01e-07 | Nc1ccc(S(=O)(=O)Nc2ccc([N+](=O)[O-])cc2Br)cc1
– | 7.4e-05 | 1.19e-07 | Nc1ccc(S(=O)(=O)Nc2ccccc2Cl)c(Cl)c1
6.05e-06 | 0.000681 | 3.32e-07 | Nc1ccc(S(=O)(=O)Nc2cccc(Cl)c2Cl)cc1
– | 0.00129 | 5.47e-06 | N#Cc1ccc(NS(=O)(=O)c2ccc(N)cc2)cc1

solubility (mole fraction) (in n-hexane) | solubility (mole fraction) (in n-octanol) | solubility (mole fraction) (in water) | SMILES
2.94e-06 | 0.00188 | 1.61e-06 | Cc1ccc(Cl)cc1NS(=O)(=O)c1ccc(N)cc1
– | 0.00248 | 4.72e-07 | Nc1ccc(S(=O)(=O)Nc2ccc(Cl)cc2)c(Cl)c1
4.69e-06 | 0.000529 | 7.25e-07 | Nc1ccc(S(=O)(=O)Nc2cc(Cl)ccc2Cl)cc1
2.41e-05 | 0.0108 | 4.27e-05 | CCN(CC)S(=O)(=O)c1ccc(N)cc1
7.73e-06 | 0.0036 | 8.69e-07 | O=S(=O)(Nc1ccccc1Cl)c1ccccc1
– | 0.0006 | 1.24e-06 | CCOC(=O)c1ccc(NS(=O)(=O)c2ccccc2)nc1
– | 0.0106 | 1.78e-06 | O=[N+]([O-])c1ccccc1NS(=O)(=O)c1ccccc1
– | 0.003 | 3.65e-06 | Nc1ccc(S(=O)(=O)Nc2ccc([N+](=O)[O-])cc2)cc1
– | 0.00145 | 1.19e-06 | Nc1ccc(S(=O)(=O)Nc2ccc(Cl)cc2)cc1
1.08e-06 | 0.000115 | 1.57e-07 | Cc1cc(N)ccc1S(=O)(=O)Nc1ccccc1Cl
2.9e-06 | 0.000873 | 3.21e-05 | CN(C)S(=O)(=O)c1ccc(N)cc1
5.4e-06 | 0.000551 | 4.84e-07 | Nc1ccc(S(=O)(=O)N(c2ccccc2)c2ccccc2)cc1
– | 0.00163 | 5.44e-07 | Nc1ccc(S(=O)(=O)Nc2ccc(I)cc2)cc1
– | 3.38e-05 | 1.13e-06 | Cc1ccc(NS(=O)(=O)c2ccc([N+](=O)[O-])cc2)nc1
2.43e-06 | 0.00158 | 7.65e-07 | Cc1ccc(NS(=O)(=O)c2ccc(N)cc2)c(Cl)c1
3.16e-06 | 0.0116 | 2.11e-06 | O=[N+]([O-])c1ccc(NS(=O)(=O)c2ccccc2)cc1
– | 0.00489 | 7.72e-07 | Cc1cc(Cl)ccc1NS(=O)(=O)c1ccc(N)cc1
